Measured values published in PMC4893628, “Chalcone-based Selective Inhibitors of a C4 Plant Key Enzyme as Novel Potential Herbicides” (Scientific Reports, 2016).
Where two headings read alike, the source gives them in different places.

What was measured:
[1] = tested on: Pseudomonas putida KT2440; test: Bacterial growth in microscale cultivation, P. putida; assay type: cell-based; conditions: for activity at 4 µM / activity at 40 µM / activity at 400 µM / activity at 55 µM / activity at 550 µM: Pseudomonas putida; for activity at 4 µM / activity at 40 µM / activity at 400 µM / Lag Phase / activity at 55 µM / activity at 550 µM: relative to control
Experimental: (§1) The following bacteria were cultivated in the presence of trans-chalcone derived inhibitors: Corynebacterium glutamicum ATCC13032[43], Escherichia coli K-12 MG1655[44], Pseudomonas putida KT2440[45], and Bacillus subtilis 168[46]. The growth of these bacteria was monitored in flower-well plates shaken at 1200 rpm as backscatter at 620 nm (gain 20) using a BioLector® microscale cultivation system (m2p labs, Baesweiler, Germany). For further experimental details please refer to the Supplementary Information.
(§2) medium or the appropriate minimal medium and shaken at 140 rpm overnight. For inoculation of
(§3) the main culture, cells equivalent to an optical density at 600 nm of 0.5 (C. glutamicum, E. coli,
(§4) and P. putida) or 0.25 (B. subtilis) in 800 µL medium were washed and resuspended in fresh
(§5) media. Inhibitor substances were dissolved in DMSO and added to the media to a final
(§6) Since the least polar trans-chalcone and 2’-hydroxychalcone precipitated in the growth media at
(§7) the highest concentrations, the maximal concentration of these compounds was reduced to 400
(§8) µM and 100 µM, respectively. The final backscatter at 620 nm, the growth rate (h-1), and the
(§9) duration of the lag phase of all cultures were determined in a BioLector microscale cultivation
(§10) system in comparison to negative controls supplemented with the solvent DMSO. A longer lag

[2] = tested on: Escherichia coli K-12 MG1655; test: Bacterial growth in microscale cultivation, E. coli; assay type: cell-based; conditions: relative to control; for activity at 4 µM / activity at 40 µM / activity at 400 µM / activity at 55 µM / activity at 550 µM: Escherichia coli
Experimental: as §1, §2, §3, §4, §5, §6, §7, §8, §9, §10

Amaranthus retroflexus = test: In planta growth experiment, A. retroflexus; assay type: in vivo; conditions: shoots sprayed, 3 mM
Excerpt: Seeds of Amaranthus retroflexus L. (Herbiseed, Twyford, UK) and Brassica napus L. cv. Mozart (Norddeutsche Pflanzenzucht Hans-Georg Lembke KG, Holtsee, Germany) were sown in vermiculite for germination. When cotyledons were fully expanded, seedlings were transplanted into plastic pots with a volume of 0.230 L filled with a substrate containing 50% bottom ash (0–4 mm), 30% peat and 20% pumice gravel (0–4 mm). Plants were watered every other day with 0.03% Hakaphos® Grün solution (Compo Expert GmbH, Münster, Germany) by sub-irrigation. Plants were grown in a climate chamber at 22 °C/20 °C day/night temperature and a day/night length of 16 h/8 h. Relative humidity was adjusted to 70% and light intensity was 320 μmol m^−2 s^−1 PAR (Photosynthetically Active Radiation) at plant level.
When seedlings reached the two-leaf growth stage, plant shoots were sprayed from the top with treatment solutions using spray bottles with a spraying angle of 35° (10 ml, neoLab Migge Laborbedarf-Vertriebs GmbH, Heidelberg, Germany). Treatment solutions were applied from a height of 8.5 cm above the pots. Each pot was sprayed once with a solution volume of 0.135 ml. Treatment solutions contained 2.4% (v/v) DMSO (dimethylsulfoxide, Duchefa Biochemie, Haarlem, the Netherlands), 0.1% (v/v) Tween® and the respective compound at a concentration of 3 mM. The control treatment contained 2.4% (v/v) DMSO, and 0.1% (v/v) Tween20. Further details are given in the Supplementary Information. […]
Experimental design and assessments of in planta experiments
We tested eleven compounds in a first experiment. In a follow-up experiment we tested selected […]
chalcone. Each treatment was repeated 12 times, except for oilseed rape in the second experiment (n=10). Pots were arranged in the growth chamber according to a fully randomized design. Initial growth of the second leaf of A. retroflexus plants was monitored by aquiring images of each plant from above from day zero to day two after treatment. Images were taken […]
from a fixed distance at 90° view angle using the camera Canon EOS 70D equipped with a Canon EF 14 mm/2.8 L II USM lens. Leaf area of single leaves was measured using the ImageJ software31, by drawing the leaf contours using a drawing tablet (Cintiq 22HD, Wacom Europe GmbH, Krefeld, Germany). Conversion of pixel to cm was achieved by using a target of known size inside the image. Six days after the treatment, half of the plants were harvested. Leaf area was assessed using a leaf area meter (LI3100C Area Meter, LI-Cor, Lincoln, Nebraska, USA) and samples were oven-dried at 65°C for seven days to obtain dry weight . Thirteen days after the treatment, this procedure was repeated with the second half of plants.
Chlorophyll fluorescence measurements […]
6 mm leaf discs were cut out of the second leaf and immediately placed into 96-well-plates filled with 300 µL 0.125 % Hoagland’s solution with 1 mM MES-KOH (MES-monohydrate, Merck, Darmstadt, Germany) buffered to a pH of 6.5. The treatment solution contained 1.6 % (v/v) DMSO, 0.1 % (v/v) Tween® 20 and 2',3',4',3,4-Pentahydroxychalcone at a concentration of 2 mM. The control treatment contained 1.6 % (v/v) DMSO, 0.1 % (v/v) Tween® 20. Each leaf disc was treated with 1.5 µL solution placed on top of the leaf discs. Plates were sealed with Parafilm and placed into a climate cabinet with 12h/12h day/night-length and a temperature of 22°C at a light intensity of 130 µmol m-2 s-1. 96 hours after treatment, chlorophyll fluorescence measurements were performed on leaf discs using an Imaging PAM M-Series fluorescence camera (Heinz Walz GmbH, Effeltrich, Germany). Leaf discs were dark adapted for 30 minutes, minimum and maximum chlorophyll fluorescence were obtained and leaf discs were illuminated for 30 minutes

[3] = KT2440, complex medium, 4 µM, read-out: Final Backscatter
[4] = KT2440, complex medium, 4 µM, read-out: Growth rate
[5] = KT2440, complex medium, 40 µM, read-out: Final Backscatter
[6] = KT2440, complex medium, 40 µM, read-out: Growth rate
[7] = KT2440, complex medium, 400 µM, read-out: Final Backscatter
[8] = KT2440, complex medium, 400 µM, read-out: Growth rate
[9] = KT2440, minimal medium, 4 µM, read-out: Final Backscatter
[10] = KT2440, minimal medium, 4 µM, read-out: Growth rate
[11] = KT2440, minimal medium, 40 µM, read-out: Final Backscatter
[12] = KT2440, minimal medium, 40 µM, read-out: Growth rate
[13] = KT2440, minimal medium, 400 µM, read-out: Final Backscatter
[14] = KT2440, minimal medium, 400 µM, read-out: Growth rate
[15] = MG1655, complex medium, 4 µM, read-out: Final Backscatter
[16] = MG1655, complex medium, 4 µM, read-out: Growth rate
[17] = MG1655, complex medium, 40 µM, read-out: Final Backscatter
[18] = MG1655, complex medium, 40 µM, read-out: Growth rate
[19] = MG1655, complex medium, 400 µM, read-out: Growth rate
[20] = MG1655, minimal medium, 4 µM, read-out: Final Backscatter
[21] = MG1655, minimal medium, 4 µM, read-out: Growth rate
[22] = MG1655, minimal medium, 40 µM, read-out: Final Backscatter
[23] = MG1655, minimal medium, 40 µM, read-out: Growth rate
[24] = MG1655, minimal medium, 400 µM, read-out: Final Backscatter
[25] = MG1655, minimal medium, 400 µM, read-out: Growth rate

SMILES: O=C(/C=C/c1ccc(O)cc1)c1ccccc1O [Compound 3, 2′,4-Dihydroxychalcone]
- activity at 4 µM [1, 3]: 99.6%
- activity at 4 µM [1, 4]: 103%
- activity at 40 µM [1, 5]: 103%
- activity at 40 µM [1, 6]: 106%
- activity at 400 µM [1, 7]: 99.5%
- activity at 400 µM [1, 8]: 108%
- activity at 4 µM [1, 9]: 97.4%
- activity at 4 µM [1, 10]: 95.3%
- activity at 40 µM [1, 11]: 101%
- activity at 40 µM [1, 12]: 97.1%
- activity at 400 µM [1, 13]: 110%
- activity at 400 µM [1, 14]: 106%
- Lag Phase ([1]; complex medium, 4 µM): 97,7%
- Lag Phase ([1]; complex medium, 40 µM): 98,5%
- Lag Phase ([1]; complex medium, 400 µM): 98,5%
- Lag Phase ([1]; minimal medium, 4 µM): 102,8%
- Lag Phase ([1]; minimal medium, 40 µM): 101,6%
- Lag Phase ([1]; minimal medium, 400 µM): 103,2%
- activity at 4 µM [2, 15]: 101%
- activity at 4 µM [2, 16]: 88.3%
- activity at 40 µM [2, 17]: 102%
- activity at 40 µM [2, 18]: 95%
- activity at 400 µM [2, 19]: 99.2%
- activity at 4 µM [2, 20]: 100%
- activity at 4 µM [2, 21]: 106%
- activity at 40 µM [2, 22]: 99.1%
- activity at 40 µM [2, 23]: 95.3%
- activity at 400 µM [2, 24]: 101%
- activity at 400 µM [2, 25]: 108%
- Lag Phase ([2]; complex medium, 4 µM): 101,4%
- Lag Phase ([2]; complex medium, 40 µM): 102,1%
- Lag Phase ([2]; complex medium, 400 µM): 97,8%
- Lag Phase ([2]; minimal medium, 4 µM): 99,3%
- Lag Phase ([2]; minimal medium, 40 µM): 100,0%
- Lag Phase ([2]; minimal medium, 400 µM): 98,6%
- Influence on plants (Amaranthus retroflexus): No

SMILES: O=C(/C=C/c1ccccc1)c1ccc(O)cc1O [Compound 4, 2′,4′-Dihydroxychalcone]
- lag phase ([1]; 400 μM): slight increase in the lag phase
- activity at 4 µM [1, 3]: 97.8%
- activity at 4 µM [1, 4]: 101%
- activity at 40 µM [1, 5]: 102%
- activity at 40 µM [1, 6]: 100%
- activity at 400 µM [1, 7]: 100%
- activity at 400 µM [1, 8]: 101%
- activity at 4 µM [1, 9]: 102%
- activity at 4 µM [1, 10]: 94.1%
- activity at 40 µM [1, 11]: 102%
- activity at 40 µM [1, 12]: 98.3%
- activity at 400 µM [1, 13]: 107%
- activity at 400 µM [1, 14]: 93.9%
- Lag Phase ([1]; complex medium, 4 µM): 105,0%
- Lag Phase ([1]; complex medium, 40 µM): 106,6%
- Lag Phase ([1]; complex medium, 400 µM): 123,2%
- Lag Phase ([1]; minimal medium, 4 µM): 108,7%
- Lag Phase ([1]; minimal medium, 40 µM): 108,3%
- Lag Phase ([1]; minimal medium, 400 µM): 97,7%
- activity at 4 µM [2, 15]: 101%
- activity at 4 µM [2, 16]: 79.6%
- activity at 40 µM [2, 17]: 104%
- activity at 40 µM [2, 18]: 97.2%
- activity at 400 µM ([2]; MG1655, complex medium, 400 µM, read-out: Final Backscatter): 100%
- activity at 400 µM [2, 19]: 89.4%
- activity at 4 µM [2, 20]: 103%
- activity at 4 µM [2, 21]: 79%
- activity at 40 µM [2, 22]: 99.3%
- activity at 40 µM [2, 23]: 77.8%
- activity at 400 µM [2, 24]: 102%
- activity at 400 µM [2, 25]: 76.5%
- Lag Phase ([2]; complex medium, 4 µM): 102,2%
- Lag Phase ([2]; complex medium, 40 µM): 101,8%
- Lag Phase ([2]; complex medium, 400 µM): 101,5%
- Lag Phase ([2]; minimal medium, 4 µM): 100,7%
- Lag Phase ([2]; minimal medium, 40 µM): 99,3%
- Lag Phase ([2]; minimal medium, 400 µM): 101,1%
- Influence on plants (Amaranthus retroflexus): No

SMILES: O=C(/C=C/c1ccccc1)c1cc(O)ccc1O [Compound 5, 2′,5′-Dihydroxychalcone]
- activity at 55 µM ([1]; KT2440, complex medium, 55 µM, read-out: Final Backscatter): 98.5%
- activity at 55 µM ([1]; KT2440, complex medium, 55 µM, read-out: Growth rate): 105%
- activity at 550 µM ([1]; KT2440, complex medium, 550 µM, read-out: Final Backscatter): 94.4%
- activity at 550 µM ([1]; KT2440, complex medium, 550 µM, read-out: Growth rate): 118%
- activity at 55 µM ([1]; KT2440, minimal medium, 55 µM, read-out: Final Backscatter): 95.5%
- activity at 55 µM ([1]; KT2440, minimal medium, 55 µM, read-out: Growth rate): 99.4%
- activity at 550 µM ([1]; KT2440, minimal medium, 550 µM, read-out: Final Backscatter): 96.7%
- activity at 550 µM ([1]; KT2440, minimal medium, 550 µM, read-out: Growth rate): 101%
- Lag Phase ([1]; complex medium, 55 µM): 99,1%
- Lag Phase ([1]; complex medium, 550 µM): 105,0%
- Lag Phase ([1]; minimal medium, 55 µM): 101,0%
- Lag Phase ([1]; minimal medium, 550 µM): 98,0%
- activity at 55 µM ([2]; MG1655, complex medium, 55 µM, read-out: Final Backscatter): 101%
- activity at 55 µM ([2]; MG1655, complex medium, 55 µM, read-out: Growth rate): 103%
- activity at 550 µM ([2]; MG1655, complex medium, 550 µM, read-out: Final Backscatter): 103%
- activity at 55 µM ([2]; MG1655, minimal medium, 55 µM, read-out: Final Backscatter): 99.1%
- activity at 55 µM ([2]; MG1655, minimal medium, 55 µM, read-out: Growth rate): 122%
- activity at 550 µM ([2]; MG1655, minimal medium, 550 µM, read-out: Final Backscatter): 96.4%
- Lag Phase ([2]; complex medium, 55 µM): 103,1%
- Lag Phase ([2]; complex medium, 550 µM): 117,2%
- Lag Phase ([2]; minimal medium, 55 µM): 105,9%
- Lag Phase ([2]; minimal medium, 550 µM): 103,0%
- Influence on plants (Amaranthus retroflexus): No
